Reference: PubChem BioAssay (NCI)
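These data come from cells grown in 96-well plates and exposed to compound for 48 hours at five concentrations. TGI: concentration producing complete growth inhibition.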

Assays:
Assay in all cases: NCI tumour cell line growth inhibition, 48 h
[1] = system: SW-620 colon
[2] = system: HL-60(TB) leukemia
[3] = system: SK-MEL-28 melanoma
[4] = system: CCRF-CEM leukemia
[5] = system: A549 NSCLC
[6] = system: HOP-62 NSCLC
[7] = system: HCT-15 colon
[8] = system: MDA-N
[9] = system: CAKI-1 renal
[10] = system: HOP-92 NSCLC
[11] = system: SK-OV-3 ovarian
[12] = system: OVCAR-4 ovarian
[13] = system: SR leukemia
[14] = system: RXF 393 renal
[15] = system: U251 CNS
[16] = system: NCI-H23 lung
[17] = system: DU-145 prostate
[18] = system: MCF7 breast
[19] = system: T-47D breast
[20] = system: M14 melanoma
[21] = system: SNB-75 CNS
[22] = system: SF-268 CNS
[23] = system: RPMI-8226 leukemia
[24] = system: PC-3 prostate
[25] = system: OVCAR-5 ovarian
[26] = system: UACC-257 melanoma
[27] = system: HCT-116 colon
[28] = system: IGROV1 ovarian
[29] = system: MDA-MB-231 breast
[30] = system: KM12 colon
[31] = system: NCI-H226 lung
[32] = system: OVCAR-8 ovarian
[33] = system: TK-10 renal
[34] = system: ACHN renal
[35] = system: A498 renal
[36] = system: 786-0 renal
[37] = system: SF-295 CNS
[38] = system: SK-MEL-5 melanoma
[39] = system: NCI/ADR-RES ovarian
[40] = system: HT29 colon
[41] = system: OVCAR-3 ovarian
[42] = system: NCI-H460 lung
[43] = system: SF-539 CNS
[44] = system: MDA-MB-435
[45] = system: MOLT-4 leukemia
[46] = system: COLO 205 colon
[47] = system: UO-31 renal
[48] = system: SN12C renal
[49] = system: SK-MEL-2 melanoma
[50] = system: HS 578T breast
[51] = system: BT-549 breast
[52] = system: K-562 leukemia
[53] = system: LOX IMVI melanoma
[54] = system: UACC-62 melanoma
[55] = system: NCI-H522 lung
[56] = system: MALME-3M melanoma
[57] = system: HCC-2998 colon
[58] = system: EKVX NSCLC
[59] = system: SNB-19 CNS

`Cc1nc2cc([N+](=O)[O-])ccc2c(NCCCN(C)C)c1C` showed a TGI [1] of 24.7 µM, a TGI [2] greater than 100 µM and a TGI [3] greater than 100 µM. The TGI [4] was greater than 100 µM, the TGI [5] was 32.2 µM and the TGI [6] was 28.2 µM. The TGI [7] was 31.3 µM, the TGI [8] was 28.2 µM and the TGI [9] was 55.6 µM. It also gave a TGI [10] of 8.09 µM, a TGI [11] greater than 100 µM and a TGI [12] of 11.1 µM. For the same compound, the TGI [13] was greater than 100 µM, the TGI [14] was 27.6 µM and the TGI [15] was 63.5 µM. It also gave a TGI [16] of 15.4 µM, a TGI [17] of 68.9 µM and a TGI [18] of 11 µM. For the same compound, the TGI [19] was 29 µM, the TGI [20] was 26.7 µM and the TGI [21] was greater than 100 µM. For the same compound, the TGI [22] was greater than 100 µM, the TGI [23] was greater than 100 µM and the TGI [24] was 24.3 µM. The TGI [25] was 38.3 µM, the TGI [26] was 18.6 µM and the TGI [27] was 22.4 µM. It also gave a TGI [28] of 11.9 µM, a TGI [29] of 14.2 µM and a TGI [30] of 26.6 µM. It also gave a TGI [31] of 25.9 µM, a TGI [32] of 35.1 µM and a TGI [33] of 67 µM. For the same compound, the TGI [34] was 76.7 µM, the TGI [35] was 30.5 µM and the TGI [36] was 30.9 µM. For the same compound, the TGI [37] was 48.4 µM, the TGI [38] was 21.7 µM and the TGI [39] was 39.9 µM. The TGI [40] was 10.9 µM, the TGI [41] was 33.7 µM and the TGI [42] was 13.5 µM. It also gave a TGI [43] of 30 µM, a TGI [44] of 31.1 µM and a TGI [45] of 29.4 µM. For the same compound, the TGI [46] was 8.55 µM, the TGI [47] was 32.1 µM and the TGI [48] was 34.5 µM. It also gave a TGI [49] of 22.7 µM, a TGI [50] of 75.7 µM and a TGI [51] of 26.1 µM. The TGI [52] was greater than 100 µM, the TGI [53] was 36 µM and the TGI [54] was 33.9 µM. For the same compound, the TGI [55] was 10.7 µM and the TGI [56] was 18.9 µM.

Work on `CC(C)CC(C(N)=O)C(=O)NC(Cc1ccccc1)NC(=O)CNC(=O)C(C)NC(=O)C(N)Cc1ccc(O)cc1` (stereo not drawn) yielded a TGI [1] greater than 100 µM, a TGI [2] greater than 100 µM and a TGI [3] greater than 100 µM. It also gave a TGI [4] greater than 100 µM, a TGI [5] greater than 100 µM and a TGI [6] greater than 100 µM. It also gave a TGI [7] greater than 100 µM, a TGI [8] greater than 100 µM and a TGI [9] greater than 100 µM. For the same compound, the TGI [11] was greater than 100 µM, the TGI [12] was greater than 100 µM and the TGI [13] was greater than 100 µM. It also gave a TGI [14] greater than 100 µM, a TGI [15] greater than 100 µM and a TGI [16] greater than 100 µM. It also gave a TGI [17] greater than 100 µM, a TGI [18] greater than 100 µM and a TGI [19] greater than 100 µM. The TGI [20] was greater than 100 µM, the TGI [57] was greater than 100 µM and the TGI [21] was greater than 100 µM. It also gave a TGI [22] greater than 100 µM, a TGI [23] greater than 100 µM and a TGI [24] greater than 100 µM. The TGI [25] was greater than 100 µM, the TGI [26] was greater than 100 µM and the TGI [27] was greater than 100 µM. The TGI [28] was greater than 100 µM, the TGI [29] was greater than 100 µM and the TGI [30] was greater than 100 µM. It also gave a TGI [31] greater than 100 µM, a TGI [32] greater than 100 µM and a TGI [33] greater than 100 µM. It also gave a TGI [34] greater than 100 µM, a TGI [36] greater than 100 µM and a TGI [37] greater than 100 µM. The TGI [38] was greater than 100 µM, the TGI [39] was greater than 100 µM and the TGI [40] was greater than 100 µM. The TGI [41] was greater than 100 µM, the TGI [42] was greater than 100 µM and the TGI [43] was greater than 100 µM. For the same compound, the TGI [44] was greater than 100 µM, the TGI [45] was greater than 100 µM and the TGI [46] was greater than 100 µM. For the same compound, the TGI [58] was greater than 100 µM, the TGI [47] was greater than 100 µM and the TGI [48] was greater than 100 µM. For the same compound, the TGI [49] was greater than 100 µM, the TGI [50] was greater than 100 µM and the TGI [51] was greater than 100 µM. For the same compound, the TGI [52] was greater than 100 µM, the TGI [53] was greater than 100 µM and the TGI [54] was greater than 100 µM. For the same compound, the TGI [55] was greater than 100 µM, the TGI [56] was greater than 100 µM and the TGI [59] was greater than 100 µM.
